Assay results taken from PubChem BioAssay (NCI).
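Method: 48-hour compound exposure of cells in 96-well plates, five concentrations, linear interpolation of endpoints. TGI: total growth inhibition.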

Legend:
Test in all cases: NCI-60 cell line screen, 48 h
[1] = test system: KM12 colon
[2] = test system: LOX IMVI melanoma
[3] = test system: SK-MEL-5 melanoma
[4] = test system: MDA-N
[5] = test system: A549 NSCLC
[6] = test system: HCC-2998 colon
[7] = test system: DU-145 prostate
[8] = test system: MDA-MB-435
[9] = test system: HT29 colon
[10] = test system: SN12C renal
[11] = test system: COLO 205 colon
[12] = test system: HL-60(TB) leukemia
[13] = test system: MDA-MB-231 breast
[14] = test system: CCRF-CEM leukemia
[15] = test system: MOLT-4 leukemia
[16] = test system: SF-268 CNS
[17] = test system: UACC-257 melanoma
[18] = test system: SK-MEL-2 melanoma
[19] = test system: OVCAR-3 ovarian
[20] = test system: SF-539 CNS
[21] = test system: HOP-62 NSCLC
[22] = test system: SW-620 colon
[23] = test system: MALME-3M melanoma
[24] = test system: M14 melanoma
[25] = test system: OVCAR-8 ovarian
[26] = test system: UACC-62 melanoma
[27] = test system: TK-10 renal
[28] = test system: SNB-19 CNS
[29] = test system: NCI/ADR-RES ovarian
[30] = test system: SNB-75 CNS
[31] = test system: MCF7 breast
[32] = test system: CAKI-1 renal
[33] = test system: EKVX NSCLC
[34] = test system: OVCAR-4 ovarian
[35] = test system: NCI-H23 lung
[36] = test system: SK-OV-3 ovarian
[37] = test system: RXF 393 renal
[38] = test system: IGROV1 ovarian
[39] = test system: UO-31 renal
[40] = test system: ACHN renal
[41] = test system: U251 CNS
[42] = test system: RPMI-8226 leukemia
[43] = test system: T-47D breast
[44] = test system: SR leukemia
[45] = test system: OVCAR-5 ovarian
[46] = test system: HCT-116 colon
[47] = test system: HCT-15 colon
[48] = test system: HS 578T breast
[49] = test system: SK-MEL-28 melanoma
[50] = test system: BT-549 breast
[51] = test system: HOP-92 NSCLC
[52] = test system: PC-3 prostate
[53] = test system: SF-295 CNS
[54] = test system: K-562 leukemia
[55] = test system: NCI-H226 lung
[56] = test system: 786-0 renal
[57] = test system: NCI-H522 lung
[58] = test system: NCI-H460 lung
[59] = test system: A498 renal

Measured: TGI

c1ccc2[nH]c(C3CCCCO3)nc2c1 (stereo not given)
not listed: [58] | [59]
> 100 µM: all other assays above

COCC1OC(OC2OCC3OC4(OCC(O)(C(C)OC)C5OCOC54)OC3C2OC)C(OC)C(O)C1OC1OC(C)C(OC)C(OC2OC(C)C3OC4(CC(O)C(OC5CC(OC6CC(C)([N+](=O)[O-])C(OC)C(C)O6)C(OC(=O)c6c(C)c(Cl)c(O)c(Cl)c6OC)C(C)O5)C(C)O4)OC3(C)C2O)C1O (stereo not given)
not listed: [23] | [31]
> 100 µM: all other assays above

CN1CCCN(C)CCCN(C)CCCN(C)CCC1
not listed: [2] | [10] | [12] | [20] | [30] | [51] | [58] | [59]
> 100 µM: all other assays above
